From PMC7961048, “Hierarchized phosphotarget binding by the seven human 14-3-3 isoforms” (Nature Communications, 2021) come the findings set out here.

Common to all, as to assay: biochemical
Type in all cases: binding

One assay concerns the target T1, 14-3-3β (Homo sapiens, UniProt P31946).
T1 construct: cDNAs encoding other full-length 14-3-3 isoforms β, τ, η, and σ were obtained as codon-optimized; made in house; host or cells: E. coli BL21(DE3)
T1 sequence (P31946 1-246): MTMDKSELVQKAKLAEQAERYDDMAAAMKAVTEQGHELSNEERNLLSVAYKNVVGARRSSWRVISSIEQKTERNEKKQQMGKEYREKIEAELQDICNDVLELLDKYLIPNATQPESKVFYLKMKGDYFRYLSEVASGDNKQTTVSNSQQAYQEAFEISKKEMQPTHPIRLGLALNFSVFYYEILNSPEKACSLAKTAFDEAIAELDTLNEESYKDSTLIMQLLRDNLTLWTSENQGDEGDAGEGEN
Here is the method:
(§1) The seven full-length human 14-3-3 isoforms, produced as fusions to a maltose-binding protein (MBP), were analyzed for their interaction with four phospho-PBMs from E6 proteins of HPV types 16, 18, 33, and 35 belonging to subgroups 1 and 2 (as defined in Supplementary Fig. 1). For comparison, we also measured two non-viral phospho-PBMs originating from protein kinase RSK1[28]. We used a competitive fluorescence polarization (FP) assay that measures the displacement of a fluorescent tracer phosphopeptide (here, derived from the HSPB6 protein) bound beforehand to 14-3-3, by an increasing amount of the peptide of interest.
(§2) For affinity measurements, full-length human 14-3-3 constructs with an N-terminal MBP fusion were used. Plasmids containing the cDNAs of the full-length 14-3-3 isoforms ε, γ, and ζ were received from Prof. Lawrence Banks. cDNAs encoding other full-length 14-3-3 isoforms β, τ, η, and σ were obtained as codon-optimized for E. coli expression synthetic genes from IDT Technologies (Coralville, Iowa, USA). All 14-3-3 isoforms were fused via a three-alanine linker to the C terminus of a mutant MBP carrying the following amino acid substitutions facilitating crystallization: D83A, K84A, K240A, E360A, K363A, and D364A[62]. All resulting clones were verified by sequencing. The MBP-fused proteins were expressed in E. coli BL21(DE3) with IPTG induction. Proteins were affinity purified on an amylose column and were further purified by ion-exchange chromatography (HiTrap Q HP, GE Healthcare). Unfused 14-3-3 isoforms devoid of the flexible C-terminal tails (14-3-3βΔC, 14-3-3τΔC 14-3-3εΔC) were expressed using IPTG induction and purified by subtractive IMAC and SEC[40]. Protein concentrations were determined by UV spectroscopy. The samples were supplemented with glycerol and TCEP before aliquoting and freezing in liquid nitrogen.
(§3) Unless otherwise stated, all phosphopeptide-binding measurements were performed using full-length 14-3-3 proteins fused to the C terminus of MBP, favoring optimal solubility and a standardized parallel purification scheme.
(§4) FP was measured with a PHERAstar (BMG Labtech, Offenburg, Germany) microplate reader by using 485 ± 20 and 528 ± 20 nm band-pass filters (for excitation and emission, respectively). In direct FP measurements, a dilution series of the 14-3-3 protein was prepared in 96-well plates (96-well skirted PCR plate, 4ti-0740, 4titude, Wotton, UK) in a 20 mM HEPES pH 7.5 buffer containing 150 mM NaCl, 0.5 mM TCEP, 0.01% Tween 20, 50 nM fluorescently labeled fpB6 peptide, and 100 μM FSC, if indicated. The volume of the dilution series was 40 μl, which was later divided into three technical replicates of 10 μl upon transferring to 384-well micro-plates (low binding microplate, 384 well, E18063G5, Greiner Bio-One, Kremsmünster, Austria). In total, polarization of the probe was measured at eight different protein concentrations (whereas one contained no protein and corresponded to the free peptide). In competitive FP measurements, the same buffer was supplemented with the protein to achieve a complex formation of 60–80%, based on the direct titration. Then, this mixture was used for creating a dilution series of the unlabeled competitor (i.e., the studied peptides) and the measurement was carried out identically as in the direct experiment.
(§5) All FP experiments were done in triplicates. Analysis of FP experiments were carried out using ProFit, an in-house developed, Python-based fitting program. ProFit utilizes a Monte Carlo approach to take into account experimental variability. It generates hundreds of simulated datasets, based on the experimental data variance and fits direct and competitive measurements in pairs.

A further assay has as its target T2, 14-3-3γ (Homo sapiens, UniProt P61981).
T2 construct: full-length human 14-3-3 constructs with an N-terminal MBP fusion were used; made in house; host or cells: E. coli BL21(DE3)
T2 sequence (P61981 1-247): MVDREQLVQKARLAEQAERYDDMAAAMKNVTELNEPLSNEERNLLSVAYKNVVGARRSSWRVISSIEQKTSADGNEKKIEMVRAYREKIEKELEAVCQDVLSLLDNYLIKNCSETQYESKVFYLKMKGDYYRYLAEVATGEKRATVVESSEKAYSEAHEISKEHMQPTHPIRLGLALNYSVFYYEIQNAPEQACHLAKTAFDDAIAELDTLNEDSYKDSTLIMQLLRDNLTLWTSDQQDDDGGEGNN
As to the method: as §1, §2, §3, §4, §5

The target in another assay is T3, 14-3-3σ (Homo sapiens, UniProt P31947).
T3 construct: cDNAs encoding other full-length 14-3-3 isoforms β, τ, η, and σ were obtained as codon-optimized; made in house; host or cells: E. coli BL21(DE3)
T3 sequence (P31947 1-248): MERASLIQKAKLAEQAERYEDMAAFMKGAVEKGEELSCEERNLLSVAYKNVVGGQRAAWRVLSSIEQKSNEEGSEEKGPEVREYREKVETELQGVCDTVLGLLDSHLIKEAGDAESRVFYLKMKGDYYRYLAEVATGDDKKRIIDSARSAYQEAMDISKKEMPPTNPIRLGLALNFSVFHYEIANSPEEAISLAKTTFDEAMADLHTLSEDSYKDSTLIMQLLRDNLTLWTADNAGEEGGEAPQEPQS
As to the method:
as §1, §2, §3, §4, §5

The next assay addresses T4, 14-3-3τ (Homo sapiens, UniProt P27348).
T4 construct: cDNAs encoding other full-length 14-3-3 isoforms β, τ, η, and σ were obtained as codon-optimized; made in house; host or cells: E. coli BL21(DE3)
T4 sequence (P27348 1-245): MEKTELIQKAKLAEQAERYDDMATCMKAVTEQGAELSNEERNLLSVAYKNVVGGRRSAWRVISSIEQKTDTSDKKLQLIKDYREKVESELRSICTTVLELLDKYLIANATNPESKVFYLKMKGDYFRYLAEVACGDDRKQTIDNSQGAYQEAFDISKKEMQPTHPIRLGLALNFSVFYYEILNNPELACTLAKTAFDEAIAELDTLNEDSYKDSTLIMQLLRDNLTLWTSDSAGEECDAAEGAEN
Here is the method: as §1, §2, §3, §4, §5

[1] abbreviates: Figure 4 panel a, unit from the colour scale line, motifs measured in this work.

Where two headings read alike, the source gives them in different places. Starred links: 1 amine or outer side, 2 acyl side, 3 side chain; linkers in the order of their positions; H or OH if unused. Non-standard residues stand in square brackets, D forms with d. Residues, ends and D or L forms follow the SMILES beside them. *: point of attachment. X1 = O=C(CCCC[C@@H]1SC[C@@H]2NC(=O)N[C@@H]21)NCCCOCCOCCOCCCN*; pT = C[C@@H](OP(=O)(O)O)[C@H](N)C(=O)O; Suc = O=C(CCC(=O)[*:2])[*:1]

As usually defined, the Kd is the free concentration of one partner at which half of the binding sites on the other are occupied at equilibrium, for simple one-to-one binding. The low end stands for tighter binding, the high end for weaker binding. Turning to `CC(C)C[C@H](NC(=O)[C@H](CCC(N)=O)NC(=O)[C@@H](NC(=O)[C@H](CCC(=O)O)NC(=O)[C@H](CCCNC(=N)N)NC(=O)[C@H](CCCNC(=N)N)NC(=O)[C@@H](NC(=O)[C@H](CCCNC(=N)N)NC(=O)[C@H](CO)NC(=O)[C@H](CO)NC(=O)CCC(=O)NCCCOCCOCCOCCCNC(=O)CCCC[C@@H]1SC[C@@H]2NC(=O)N[C@@H]21)[C@@H](C)O)[C@@H](C)OP(=O)(O)O)C(=O)O` [pHPV16E6], the equilibrium dissociation constant (Kd) was 159 ± 45 µM on 14-3-3β, 37.2 ± 3 µM on 14-3-3γ, over 300 µM at 14-3-3σ and 144 ± 28 µM on 14-3-3τ. Moreover, the “Binding affinities (KD) of various 14-3-3-binding motifs, 14-3-3σ” value (from here on “Binding affinities (KD) … 14-3-3σ”) on 14-3-3σ (setting [1]) is listed as “√”. Also, the “Binding affinities (KD) of various 14-3-3-binding motifs, 14-3-3τ” value on 14-3-3τ (setting [1]) was 144 µM.
With `CC(C)C[C@H](NC(=O)[C@H](CCCNC(=N)N)NC(=O)CCC(=O)NCCCOCCOCCOCCCNC(=O)CCCC[C@@H]1SC[C@@H]2NC(=O)N[C@@H]21)C(=O)N[C@@H](CCC(N)=O)C(=O)N[C@@H](CCCNC(=N)N)C(=O)N[C@@H](CCCNC(=N)N)C(=O)N[C@@H](CCCNC(=N)N)C(=O)N[C@@H](CCC(=O)O)C(=O)N[C@H](C(=O)N[C@@H](CCC(N)=O)C(=O)N[C@H](C(=O)O)C(C)C)[C@@H](C)OP(=O)(O)O` [pHPV18E6], the Kd on 14-3-3β was 42.2 ± 6.3 µM; on 14-3-3γ it was 11.1 ± 0.6 µM; at 14-3-3σ, 139 ± 24 µM; on 14-3-3τ, 37.8 ± 6 µM.
`CC(C)C[C@H](NC(=O)[C@H](C)NC(=O)[C@@H](NC(=O)[C@H](CCC(=O)O)NC(=O)[C@H](CCCNC(=N)N)NC(=O)[C@H](CCCNC(=N)N)NC(=O)[C@H](CCCNC(=N)N)NC(=O)[C@H](CO)NC(=O)[C@H](CCCNC(=N)N)NC(=O)[C@H](CO)NC(=O)CCC(=O)NCCCOCCOCCOCCCNC(=O)CCCC[C@@H]1SC[C@@H]2NC(=O)N[C@@H]21)[C@@H](C)OP(=O)(O)O)C(=O)O` [pHPV33E6] ({X1-Suc}-SRSRRRE[pT]AL-OH): the Kd was 4.05 µM on 14-3-3β; 0.94 µM on 14-3-3γ (Binding affinities (KD) of various 14-3-3-binding motifs, 14-3-3γ); under 1 µM at 14-3-3γ (KD (μM) ± std 14-3-3γ); 6.77 µM on 14-3-3σ; 3.52 µM at 14-3-3τ.
As for `CC(C)[C@H](NC(=O)[C@H](C)NC(=O)[C@@H](NC(=O)[C@H](CCC(=O)O)NC(=O)[C@H](CCCNC(=N)N)NC(=O)[C@H](CCCNC(=N)N)NC(=O)[C@@H](NC(=O)[C@@H]1CCCN1C(=O)[C@H](CCCCN)NC(=O)[C@H](CO)NC(=O)CCC(=O)NCCCOCCOCCOCCCNC(=O)CCCC[C@@H]1SC[C@@H]2NC(=O)N[C@@H]21)[C@@H](C)O)[C@@H](C)OP(=O)(O)O)C(=O)O` [pHPV35E6E-1A] ({X1-Suc}-SKPTRRE[pT]AV-OH), the Kd at 14-3-3β came out at 20.2 µM; at 14-3-3γ, 9.31 µM; at 14-3-3σ, 44.1 µM; at 14-3-3τ, 21.5 µM.
With `CC(C)[C@H](NC(=O)[C@H](CCC(=O)O)NC(=O)[C@@H](NC(=O)[C@H](CCC(=O)O)NC(=O)[C@H](CCCNC(=N)N)NC(=O)[C@H](CCCNC(=N)N)NC(=O)[C@H](CCCNC(=N)N)NC(=O)[C@@H]1CCCN1C(=O)[C@H](CCCCN)NC(=O)[C@H](CO)NC(=O)CCC(=O)NCCCOCCOCCOCCCNC(=O)CCCC[C@@H]1SC[C@@H]2NC(=O)N[C@@H]21)[C@@H](C)OP(=O)(O)O)C(=O)O` [pHPV35E6T-6R] ({X1-Suc}-SKPRRRE[pT]EV-OH), the Kd on 14-3-3β was 179 ± 29 µM; at 14-3-3γ it was 71.2 ± 6.7 µM; at 14-3-3σ it was over 300 µM; on 14-3-3τ, 194 ± 37 µM. Besides, at 14-3-3σ (setting [1]), the “Binding affinities (KD) … 14-3-3σ” value is listed as “√”.
As to `CC(C)[C@H](NC(=O)[C@H](CCC(=O)O)NC(=O)[C@@H](NC(=O)[C@H](CCC(=O)O)NC(=O)[C@H](CCCNC(=N)N)NC(=O)[C@H](CCCNC(=N)N)NC(=O)[C@@H](NC(=O)[C@@H]1CCCN1C(=O)[C@H](CCCCN)NC(=O)[C@H](CO)NC(=O)CCC(=O)NCCCOCCOCCOCCCNC(=O)CCCC[C@@H]1SC[C@@H]2NC(=O)N[C@@H]21)[C@@H](C)O)[C@@H](C)OP(=O)(O)O)C(=O)O` [pHPV35E6] ({X1-Suc}-SKPTRRE[pT]EV-OH), the “Binding affinities (KD) of various 14-3-3-binding motifs, 14-3-3β” value at 14-3-3β is reported as “√”. The equilibrium dissociation constant (Kd) was over 300 µM at 14-3-3β, 125 ± 6 µM at 14-3-3γ (KD (μM) ± std 14-3-3γ), over 300 µM on 14-3-3σ and 233 ± 14 µM at 14-3-3τ. Also, the “Binding affinities (KD) … 14-3-3σ” value at 14-3-3σ is recorded as “√”.
